Measurements taken from patent publication US20160074480A1, “INNOVATIVE METHODS OF TREATMENTING TUBERCULOSIS” (priority 2015, published 2016).
Like-named read-outs stand apart in the source and are kept apart here.

Legend:
[1] = tested on: tuberculosis infection; conditions: cited from earlier work; for effect on tuberculosis infection: alone at 20 mg/kg per day; for TB lesion in the spleen compared with pyrazinamide alone / bacteria in the lungs compared with pyrazinamide alone: simultaneous administration with pyrazinamide
[2] = in vivo; cited from earlier work
[3] = tested on: radiation resistant breast cancer cells; conditions: cells pre-loaded with iron after incubation with holotransferrin, cited from earlier work
[4] = tested on: malaria; conditions: 3 grams (about 50 mg/kg) over a 3 to 5 day period; cited from earlier work
[5] = tested on: TB bacteria; conditions: cited from earlier work
[6] = target: TB proteasome (Mycobacterium tuberculosis, UniProt P9WHT9); conditions: Lin et al 2009; cited from earlier work
Chain of TB proteasome (P9WHT9 58-291): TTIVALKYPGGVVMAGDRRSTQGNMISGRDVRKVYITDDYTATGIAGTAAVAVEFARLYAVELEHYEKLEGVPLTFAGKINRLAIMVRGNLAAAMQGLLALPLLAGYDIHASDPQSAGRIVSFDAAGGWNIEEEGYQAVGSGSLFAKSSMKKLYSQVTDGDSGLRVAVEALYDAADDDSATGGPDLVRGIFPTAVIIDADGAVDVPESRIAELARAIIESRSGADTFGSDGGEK
Chain of TB proteasome (P9WHU1 whole entry partner): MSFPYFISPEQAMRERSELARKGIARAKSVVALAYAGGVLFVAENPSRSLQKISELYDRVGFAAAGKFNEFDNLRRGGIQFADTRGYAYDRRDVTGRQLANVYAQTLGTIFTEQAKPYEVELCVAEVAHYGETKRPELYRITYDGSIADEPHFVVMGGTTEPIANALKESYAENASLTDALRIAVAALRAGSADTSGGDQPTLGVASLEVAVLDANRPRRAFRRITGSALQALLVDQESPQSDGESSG

[7] = tested on: TB bacteria; conditions: cited from earlier work; remark: listed apart in the source
[8] = tested on: monkey and human cells; conditions: cited from earlier work
[9] = tested on: tuberculosis bacteria; conditions: treated for 3 days, versus untreated sample; cited from earlier work
[10] = tested on: mycobacterium tuberculosis; assay: Breast cancer patient with pulmonary TB given high dose Vitamin C; assay type: in vivo, human
Excerpt: In the presence of above reductants, ferrous ions are produced by reduction of ferric ions (#2). One reductant known to drive the Fenton reaction is Vitamin C, also known as ascorbic acid. As a pro-oxidant, vitamin C can drive the Fenton reaction by reducing ferric ions to ferrous ions as shown in the above formula and FIG. 3. Most iron within the cell is bound within porphyrins and proteins, as ferric ions that are sparingly soluble and ferrous ions are very reactive as well as more soluble. To examine the role of iron concentration in vitamin C bactericidal activity, the concentrations of bound iron and reduced and oxidized free iron were measured in tuberculosis cultures treated with vitamin C. […] This increase in free iron levels was also the dose which peaked at day three. […] We treated a person has traveled to Southeast Asia and was diagnosed with left breast cancer. It was an early case with discrete lymph node metastasis. They have cough with blood tinged sputum, night sweats, and weight loss. […] By the time we made the TB diagnosis they were treated with high dose Vitamin C 10 to 25 grams in 500 ml normal saline every day for a total of 10 doses as an adjuvant therapy for cancer. They underwent local injection of anti-breast cancer chemotherapy therapeutic agents with insulin and local heat application with magnetic heat waves and hyperbaric therapy using soft air HBO chamber.
This person has traveled to Southeast Asia and was diagnosed with left breast cancer. It was an early case with discrete lymph node metastasis. They have cough with blood tinged sputum, night sweats, and weight loss. […] By the time we made the TB diagnosis they were treated with high dose Vitamin C 10 to 25 grams in 500 ml normal saline every day for a total of 10 doses as an adjuvant therapy for cancer. They underwent local injection of anti-breast cancer chemotherapy therapeutic agents with insulin and local heat application with magnetic heat waves and hyperbaric therapy using soft air HBO chamber.
After the lab came with mycobacterium tuberculosis, we wanted to see why the cough has gone with no sputum. […] We sent the sputum again, and came negative for mycobacterium tuberculosis after culture. This also made us to diagnose that the lesion in the lungs was not a metastatic breast cancer. The patient was treated with chemotherapy, local injection of breast mass and lymph nodes with high dose Vitamin C chemotherapy therapeutic agents. After completion of therapy, they were sent to surgery for the removal of the remaining lesion mass in the breast which had shrunk considerably, and axillary lymph node resection. They were seen 3 months after surgery. Their chest X ray was negative and so also sputum M. tuberculosis bacteria. They were free of cancer and tuberculosis.

[11] = intravenous, doses from 5 to 50 grams or higher per day
[12] = tested on: tuberculosis cultures; conditions: compared to the untreated cultures after three days; cited from earlier work
[13] = tested on: M. tuberculosis; conditions: flow cytometry; cited from earlier work
[14] = tested on: M. tuberculosis; conditions: after 9 days; cited from earlier work
[15] = tested on: plasma C reactive protein (CRP); conditions: smokers; cited from earlier work
[16] = tested on: creatine kinase; conditions: compared with the placebo group; cited from earlier work
[17] = tested on: endothelial dysfunction; conditions: 2,000 mg/day for two weeks; cited from earlier work
[18] = cited from earlier work
[19] = tested on: Methicillin resistant staphylococcus aureus; assay: Treatment of MRSA infected patients; conditions: with broad spectrum antibiotics, insulin induced hypoglycemia and hyperbaric therapy
[20] = tested on: Mycobacterium tuberculosis bacteria in the monocytes; conditions: cited from earlier work
[21] = tested on: Mycobacterium tuberculosis outside cells; conditions: cited from earlier work
[22] = low sustained systemic release; cited from earlier work
[23] = tested on: pathogenic organism's; conditions: cited from earlier work
[24] = at atmospheric pressure; cited from earlier work
[25] = cited from earlier work; remark: listed apart in the source
[26] = cited from earlier work; remark: listed apart in the source
[27] = tested on: M. tuberculosis; conditions: cited from earlier work
[28] = target: proprotein convertase subtilisin-kexin type 9 (PCSK9) (Homo sapiens, UniProt Q8NBP7); conditions: parenteral administration; cited from earlier work
[29] = 150 mg/kg per day, one month of treatment

Molecule: NC(=O)c1cnccn1 [pyrazinamide, Pyrazinamide]
- reduction in the lung compared with the control [1, 29]: about 1.5 log10 cfu
- reduction in the spleen compared with the control [1, 29]: ~2 log10 cfu
- ADVERSE EVENT/CONTRAINDICATION [2]: Hepatitis

Molecule: C[C@@H]1CC[C@H]2[C@@H](C)C(=O)O[C@@H]3O[C@@]4(C)CC[C@@H]1[C@]32OO4 [artemisinin]
- cancer cell killing ([3]; 8 hours): 75%
- cancer cell killing ([3]; within 24 hours): ~100%
- resistance and toxicity [4]: no resistance nor did toxicity

Molecule: CC(=O)Nc1ccc(/C=N/NC(N)=S)cc1 [Thiacetazone]
- ADVERSE EVENT/CONTRAINDICATION [2]: Severe skin rash among HIV +ve (not recommended)

Molecule: CC(C)Cc1ccc(C(C)C(=O)O)cc1 (stereo not drawn) [ibuprofen]
- effect on tuberculosis infection [1]: little effect
- TB lesion in the spleen compared with pyrazinamide alone [1]: further decrease
- bacteria in the lungs compared with pyrazinamide alone [1]: lower unit counts
- number of TB bacteria detected in the organs ([5]; mouse, in vivo): reduced the number of TB bacteria detected in the organs
- survival ([5]; versus mice not treated with ibuprofen): lived longer

Molecule: oxathiazol-2-one
- inhibition of the TB proteasome relative to the human proteasome [6]: about 1,000 times
- effect on TB bacteria [7]: killed the TB bacteria
- harm to mammalian cells [8]: did not appear to harm mammalian cells

Molecule: CC(=O)Oc1ccccc1C(=O)O [aspirin, Acetylsalicylic acid]
- effect on tuberculosis infection [1]: little effect
- TB lesion in the spleen compared with pyrazinamide alone [1]: further decrease
- bacteria in the lungs compared with pyrazinamide alone [1]: statistically significant fewer bacteria

Molecule: N[C@@H](CS)C(=O)O [cysteine]
- intracellular levels of ferrous ions [9]: up to ten times higher

Molecule: O=C1O[C@H]([C@@H](O)CO)C(O)=C1O [Vitamin C, L-ascorbic acid]
- outcome of tuberculosis ([10]; 10 to 25 grams IV every day, total of 10 doses): completely cured of tuberculosis
- cough ([10]; by second week): completely disappeared
- sputum for mycobacterium tuberculosis after culture ([10]; repeat sputum after treatment): negative
- chest X ray ([10]; third week): disappearance of the lesion
- safety and tolerability [11]: safe and well-tolerated
- extracellular free iron concentrations [12]: nearly four-fold higher
- intracellular levels of ferrous ions [9]: up to ten times higher
- increase in total ROS [13]: Up to threefold
- DNA damage relative to the untreated culture or culture treated with Vitamin E [14]: tenfold higher
- ROS induced DNA damage [14]: 17-25%
- reduction in plasma C reactive protein (CRP) concentrations [15]: 24%
- release of creatine kinase, an indicator of muscle damage [16]: inhibits the release of creatine kinase
- endothelial dysfunction [17]: reversed endothelial dysfunction
- peak plasma concentration ([18]; IV infusion up to 50 grams, cancer patients): 13.4 mM
- peak plasma concentrations ([18]; maximum tolerated dose of 3 g every 4 hours taken orally): 0.22 mM
- outcome of MRSA infection [19]: complete elimination of the infection

Molecule: O=C1[C@H](CC[C@H](O)c2ccc(F)cc2)[C@@H](c2ccc(O)cc2)N1c1ccc(F)cc1 [Ezetimibe, (3R,4S)-1-(4-fluorophenyl)-3-[(3S)-3-(4-fluorophenyl)-3-hydroxypropyl]-4-(4-hydroxyphenyl) zetidin-2-one]
- survival and proliferation of Mycobacterium tuberculosis in the monocytes [20]: significantly inhibiting the survival and proliferation
- killing of Mycobacterium tuberculosis outside cells [21]: directly killing

Molecule: O=[N+]([O-])c1ccc(O)c([N+](=O)[O-])c1 [DNP, 2,4, dinitrophenol]
- increase of the therapeutic window [22]: more than 500 fold

Molecule: CC[C@@H](CO)NCCN[C@@H](CC)CO [Ethambutol]
- adverse effects stated in the text [2]: risk of developing optic neuritis

Molecule: O=[O+][O-] [ozone]
- molecules of chlorine equal to one molecule of ozone [23]: 3000-10,000 molecules
- speed of killing pathogenic organisms ([23]; compared with chlorine): 3500 times faster
- time to break down from O3 to O2+O1 [24]: ≤ 20 min

Molecule: CO[C@H]1/C=C/O[C@@]2(C)Oc3c(C)c(O)c4c(O)c(c(/C=N/N5CCN(C)CC5)c(O)c4c3C2=O)NC(=O)/C(C)=C\C=C\[C@H](C)[C@H](O)[C@@H](C)[C@@H](O)[C@@H](C)[C@H](OC(C)=O)[C@@H]1C [Rifampin, Rifampicin]
- Plasma Concentrations (mean±standard deviation) ([25]; IV 300 mg, 30 min): 8900 ± 2900 ng/mL
- Plasma Concentrations (mean±standard deviation) ([25]; IV 300 mg, 1 hr to 2 hr): 4900 ± 1300 ng/mL
- Plasma Concentrations (mean±standard deviation) ([25]; IV 300 mg, 4 hr): 2500 ± 1000 ng/mL
- Plasma Concentrations (mean±standard deviation) ([25]; IV 300 mg, 8 hr): 1000 ± 600 ng/mL
- Plasma Concentrations (mean±standard deviation) ([25]; IV 300 mg, 12 hr): <400 ng/mL
- Plasma Concentrations (mean±standard deviation) ([25]; IV 600 mg, 30 min): 17400 ± 5100 ng/mL
- Plasma Concentrations (mean±standard deviation) ([25]; IV 600 mg, 1 hr to 2 hr): 11700 ± 2800 ng/mL
- Plasma Concentrations (mean±standard deviation) ([25]; IV 600 mg, 4 hr): 6400 ± 1700 ng/mL
- Plasma Concentrations (mean±standard deviation) ([25]; IV 600 mg, 8 hr): 3500 ± 1400 ng/mL
- Plasma Concentrations (mean±standard deviation) ([25]; IV 600 mg, 12 hr): 1200 ng/mL
- ADVERSE EVENT/CONTRAINDICATION [2]: Hepatitis, GI reactions
- concentration of the drug in the blood plasma ([26]; after increasing the dose): higher than expected
- adverse effects ([26]; increased dose versus standard dose): did not experience adverse effects

Molecule: CCc1cc(C(N)=S)ccn1 [Ethionamide, 2-ethylthioiso-nicotinamide]
- adverse effects stated in the text [2]: neurotoxicity and fatal hepatotoxicity

B1: IFN-Y^− 1b: recombinant interferon gamma 1b, given nebulized (protein, UniProt P01579 24-161, looked up)
Interferon gamma: QDPYVKEAENLKKYFNAGHSDVADNGTLFLGILKNWKEESDRKIMQSQIVSFYFKLFKNFKDDQSIQKSVETIKEDMNVKFFNSNKKKRDDFEKLTNYSVTDLNVQRKAIHELIQVMAELSPAAKTGKRKRSQMLFRG
- IFN gamma signaling ([27]; 10 TB patients, one month of nebulized therapy): enhanced IFN-Y^− signaling
- clearance of M. tuberculosis bacteria from the sputum ([27]; nebulized, added to DOTS, randomized controlled trial): more rapid clearance
- sputum ([27]; open-label, nebulized, 5 patients with MDR-TB, after 1 month): clearing of the sputum

B2: evolocumab: human monoclonal antibody that inhibits PCSK9 (antibody, chains of the INN, looked up, V domains shown)
VH: EVQLVQSGAEVKKPGASVKVSCKASGYTLTSYGISWVRQAPGQGLEWMGWVSFYNGNTNYAQKLQGRGTMTTDPSTSTAYMELRSLRSDDTAVYYCARGYGMDVWGQGTTVTVSS
VL: ESALTQPASVSGSPGQSITISCTGTSSDVGGYNSVSWYQQHPGKAPKLMIYEVSNRPSGVSNRFSGSKSGNTASLTISGLQAEDEADYYCNSYTSTSMVFGGGTKLTVL
- reduction in LDL cholesterol levels [28]: 60%
